Among the data in the OligoGym collection are caspase activation (% of PBS control) values, retold here.

Bases are written 5' to 3'; sugars and linkages follow in the same order, as letters with counts (s phosphorothioate, o phosphodiester; PS: all linkages phosphorothioate). C may stand for cytosine or 5-methylcytosine; the collection does not tell. l = locked nucleic acid (LNA); d = 2'-deoxy (DNA)

The data set deals with HIF1A. Put plainly: HeLa, 100 nM transfected, 24 h, mean of 3. The settings on record: ASO.
Consider “GCAAGCATCCTGT (sugars ldllddddddldl, PS)”, for which the caspase activation (% of PBS control) is 176. On to “GCAAGCATCCTGT (sugars lldlddddddldl, PS)”, for which the caspase activation (% of PBS control) amounted to 209. The same measure for “GGCAAGCATCCTG (sugars l1 d1 l1 d7 l3, PS)”: 721; for “GGCAAGCATCCTG (sugars l1 d1 l1 d8 l2, PS)”: 685; for “GGCAAGCATCCTG (sugars l1 d1 l1 d9 l1, PS)”: 339. The same measure for “GGCAAGCATCCTG (sugars l1 d1 l2 d6 l3, PS)”: 495.

The sequence “GGCAAGCATCCTG (sugars l1 d1 l2 d7 l2, PS)” yielded a caspase activation (% of PBS control) of 688. Next, “GGCAAGCATCCTG (sugars l1 d1 l2 d8 l1, PS)”: 547; “GGCAAGCATCCTG (sugars l1 d2 l1 d6 l3, PS)”: 397. Next, “GGCAAGCATCCTG (sugars l1 d2 l1 d7 l2, PS)”: 361; “GGCAAGCATCCTG (sugars l1 d2 l1 d8 l1, PS)”: 205; “GGCAAGCATCCTG (sugars l1 d9 l1 d1 l1, PS)”: 390. The same measure for GGCAAGCATCCTG (sugars l1 d9 l3, PS): 468; for GGCAAGCATCCTG (sugars l1 d10 l2, PS): 394; for GGCAAGCATCCTG (sugars l1 d11 l1, PS): 316. Consider “GGCAAGCATCCTG (sugars l2 d1 l1 d6 l3, PS)”, for which the caspase activation (% of PBS control) was 502.

With “GGCAAGCATCCTG (sugars l2 d1 l1 d7 l2, PS)”, the caspase activation (% of PBS control) turned out to be 560. Turning to “GGCAAGCATCCTG (sugars l2 d1 l1 d8 l1, PS)”, the caspase activation (% of PBS control) worked out at 359. Next, “GGCAAGCATCCTG (sugars l2 d8 l1 d1 l1, PS)”: 327; GGCAAGCATCCTG (sugars l2 d8 l3, PS): 657; GGCAAGCATCCTG (sugars l2 d9 l2, PS): 554. GGCAAGCATCCTG (sugars l2 d10 l1, PS) came in with a caspase activation (% of PBS control) of 291.

Regarding “GGCAAGCATCCTG (sugars l3 d7 l1 d1 l1, PS)”, the caspase activation (% of PBS control) is 632. The same measure for GGCAAGCATCCTG (sugars l3 d7 l3, PS): 632; for GGCAAGCATCCTG (sugars l3 d8 l2, PS): 642; for GGCAAGCATCCTG (sugars l3 d9 l1, PS): 496. Next, “GGCAAGCATCCTG (sugars l4 d6 l1 d1 l1, PS)”: 607. Next, GGCAAGCATCCTG (sugars l4 d6 l3, PS): 618; GGCAAGCATCCTG (sugars l4 d7 l2, PS): 528; GGCAAGCATCCTG (sugars l4 d8 l1, PS): 604. On to “GGCAAGCATCCTG (sugars lddlddddddldl, PS)”, for which the caspase activation (% of PBS control) came to 198. Next, “GGCAAGCATCCTG (sugars ldldddddddldl, PS)”: 344; “GGCAAGCATCCTG (sugars ldllddddddldl, PS)”: 370; “GGCAAGCATCCTG (sugars lldlddddddldl, PS)”: 334. Next, “GTTACTGCCTTCT (sugars l1 d1 l1 d7 l3, PS)”: 170; “GTTACTGCCTTCT (sugars l1 d1 l1 d8 l2, PS)”: 123; “GTTACTGCCTTCT (sugars l1 d1 l1 d9 l1, PS)”: 117. Sequence “GTTACTGCCTTCT (sugars l1 d1 l2 d6 l3, PS)” returned a caspase activation (% of PBS control) of 239. The same measure for “GTTACTGCCTTCT (sugars l1 d1 l2 d7 l2, PS)”: 154. With “GTTACTGCCTTCT (sugars l1 d1 l2 d8 l1, PS)”, the caspase activation (% of PBS control) stood at 136. The same measure for “GTTACTGCCTTCT (sugars l1 d2 l1 d6 l3, PS)”: 134; for “GTTACTGCCTTCT (sugars l1 d2 l1 d7 l2, PS)”: 136. As for “GTTACTGCCTTCT (sugars l1 d2 l1 d8 l1, PS)”, the caspase activation (% of PBS control) was 110.

The sequence “GTTACTGCCTTCT (sugars l1 d9 l1 d1 l1, PS)” showed a caspase activation (% of PBS control) of 104. GTTACTGCCTTCT (sugars l1 d9 l3, PS) returned a caspase activation (% of PBS control) of 171.

With GTTACTGCCTTCT (sugars l1 d10 l2, PS), the caspase activation (% of PBS control) was 127. Take GTTACTGCCTTCT (sugars l1 d11 l1, PS): the caspase activation (% of PBS control) came to 112. With “GTTACTGCCTTCT (sugars l2 d1 l1 d6 l3, PS)”, the caspase activation (% of PBS control) was 183. In turn, “GTTACTGCCTTCT (sugars l2 d1 l1 d7 l2, PS)” yielded a caspase activation (% of PBS control) of 134. Sequence “GTTACTGCCTTCT (sugars l2 d1 l1 d8 l1, PS)” registered a caspase activation (% of PBS control) of 133. Next, “GTTACTGCCTTCT (sugars l2 d8 l1 d1 l1, PS)”: 98.3; GTTACTGCCTTCT (sugars l2 d8 l3, PS): 168; GTTACTGCCTTCT (sugars l2 d9 l2, PS): 114. Next, GTTACTGCCTTCT (sugars l2 d10 l1, PS): 109.

The sequence “GTTACTGCCTTCT (sugars l3 d7 l1 d1 l1, PS)” registered a caspase activation (% of PBS control) of 161.

For GTTACTGCCTTCT (sugars l3 d7 l3, PS), the caspase activation (% of PBS control) amounted to 267.

Regarding GTTACTGCCTTCT (sugars l3 d8 l2, PS), the caspase activation (% of PBS control) turned out to be 164.

Sequence GTTACTGCCTTCT (sugars l3 d9 l1, PS) registered a caspase activation (% of PBS control) of 138. Sequence “GTTACTGCCTTCT (sugars l4 d6 l1 d1 l1, PS)” yielded a caspase activation (% of PBS control) of 221. Next, GTTACTGCCTTCT (sugars l4 d6 l3, PS): 356.

The sequence GTTACTGCCTTCT (sugars l4 d7 l2, PS) registered a caspase activation (% of PBS control) of 196.

GTTACTGCCTTCT (sugars l4 d8 l1, PS) registered a caspase activation (% of PBS control) of 142. The same measure for “GTTACTGCCTTCT (sugars lddlddddddldl, PS)”: 110. “GTTACTGCCTTCT (sugars ldldddddddldl, PS)” displayed a caspase activation (% of PBS control) of 108.

In turn, “GTTACTGCCTTCT (sugars ldllddddddldl, PS)” had a caspase activation (% of PBS control) of 156. With “GTTACTGCCTTCT (sugars lldlddddddldl, PS)”, the caspase activation (% of PBS control) was determined as 105. Next, “GTTACTGCCTTCTTAC (sugars l1 d1 l1 d8 l5, PS)”: 298.

Take “GTTACTGCCTTCTTAC (sugars l1 d1 l1 d9 l4, PS)”: the caspase activation (% of PBS control) came to 147. The sequence “GTTACTGCCTTCTTAC (sugars l1 d1 l1 d10 l3, PS)” came in with a caspase activation (% of PBS control) of 109. As to “GTTACTGCCTTCTTAC (sugars l1 d1 l1 d11 l2, PS)”, the caspase activation (% of PBS control) is 97.8. Next, “GTTACTGCCTTCTTAC (sugars l1 d1 l1 d12 l1, PS)”: 103; “GTTACTGCCTTCTTAC (sugars l1 d1 l2 d7 l5, PS)”: 361; “GTTACTGCCTTCTTAC (sugars l1 d1 l2 d8 l4, PS)”: 200. The same measure for “GTTACTGCCTTCTTAC (sugars l1 d1 l2 d9 l3, PS)”: 141; for “GTTACTGCCTTCTTAC (sugars l1 d1 l2 d10 l2, PS)”: 130; for “GTTACTGCCTTCTTAC (sugars l1 d1 l2 d11 l1, PS)”: 156. The same measure for “GTTACTGCCTTCTTAC (sugars l1 d1 l3 d6 l5, PS)”: 616. Take “GTTACTGCCTTCTTAC (sugars l1 d1 l3 d7 l4, PS)”: the caspase activation (% of PBS control) is 465. The sequence “GTTACTGCCTTCTTAC (sugars l1 d1 l3 d8 l3, PS)” came in with a caspase activation (% of PBS control) of 463. In turn, “GTTACTGCCTTCTTAC (sugars l1 d1 l3 d9 l2, PS)” returned a caspase activation (% of PBS control) of 292. Next, “GTTACTGCCTTCTTAC (sugars l1 d1 l3 d10 l1, PS)”: 323. As to “GTTACTGCCTTCTTAC (sugars l1 d2 l1 d7 l5, PS)”, the caspase activation (% of PBS control) came to 268.

Sequence “GTTACTGCCTTCTTAC (sugars l1 d2 l1 d8 l4, PS)” showed a caspase activation (% of PBS control) of 175. As for “GTTACTGCCTTCTTAC (sugars l1 d2 l1 d9 l3, PS)”, the caspase activation (% of PBS control) turned out to be 131. The same measure for “GTTACTGCCTTCTTAC (sugars l1 d2 l1 d10 l2, PS)”: 93.2. For the sequence “GTTACTGCCTTCTTAC (sugars l1 d2 l1 d11 l1, PS)”, the caspase activation (% of PBS control) worked out at 91.7. Next, “GTTACTGCCTTCTTAC (sugars l1 d2 l2 d6 l5, PS)”: 485. The sequence “GTTACTGCCTTCTTAC (sugars l1 d2 l2 d7 l4, PS)” came in with a caspase activation (% of PBS control) of 361. The sequence “GTTACTGCCTTCTTAC (sugars l1 d2 l2 d8 l3, PS)” yielded a caspase activation (% of PBS control) of 248. The sequence “GTTACTGCCTTCTTAC (sugars l1 d2 l2 d9 l2, PS)” showed a caspase activation (% of PBS control) of 149. Next, “GTTACTGCCTTCTTAC (sugars l1 d2 l2 d10 l1, PS)”: 185; “GTTACTGCCTTCTTAC (sugars l1 d3 l1 d6 l5, PS)”: 359.
